Experimental data reported in US5112863A, “Antipsychotic drug” (Nippon Oil & Fats Co., Ltd., priority 1989, dated 1992).

Legend:
[1] = background statement; cited from earlier work
[2] = system: Wistar rats; experiment: Antipsychotic action test: phencyclidine-induced locomotor activity and stereotypy (method of Sturgen et al.); format: in vivo; conditions: for Effect on locomotor activity and stereotypy score compared with NMD-Ser and NMD-Ala: phencyclidine-dosed rats, dose not stated; for Locomotor activity score / Stereotypy score: 10 min before phencyclidine 10 mg/kg i.p., 30 minutes, grades 0-5; for Dose dependence of locomotor activity and stereotypy score: 30 minutes after pretreatment and dosage of phencyclidine; for Control of locomotor activity and stereotypy score: group dosed 100 mg/kg; for Statistical significance of lowering of locomotor activity and stereotypy score: group dosed more than 50 mg/kg, P<0.01
Description: (§1) Method: the action of antipsychotic was estimated by a method of Sturgen et al. (Eur. J. Pharmacol 76, 37-53, 1981). Namely, medicines suspended in 0.1% Tween 80 were dosed in the abdomen of Wistar rats (Weight: 200-250 g, 6 rats/group). After ten minutes, phencyclidine dissolved in physiological saline (10 mg/kg) was dosed intraperitoneally. After ten minutes, locomotor activity and stereotypy score were estimated at intervals of 20 minutes by 6 grades.
1. Sometimes, movement within localized area of cage.
2. Movement over a small area of cage, intermittent activity emitted at a low-moderate rate.
3. Movement over a small area of cage, activity emitted continuously and at a moderate-rapid rate.
4. Movement over a large area of cage, activety is intermittent and emitted at a low-moderate rate.
5. Movement over a large area of cage, activety is emitted continuously and at a moderate-rapid rate.
1. Locomotor activity, sniffing and grooming more frequent than observed for control.
2. Higher frequency of sniffing, rearing or turning than in 1.
3. Moderate rate and intermittent sniffing, rearing, turning or backpedaling.
4. Rapid rate and continuous turning, backpedaling, sniffing.
5. Dyokinetic extension and flexion of limbs, head and neck.

[3] = dosed in a living body; background statement; cited from earlier work
[4] = system: GABA system; conditions: via a GABA system; Japanese Patent Publications; Biochemical Pharmacol., 32, 2751-2755, 1983; cited from earlier work
[5] = system: glycine binding site; experiment: Intracranial administration with 7-chlorokynurenic acid, phencyclidine-induced locomotor activity and stereotypy; format: in vivo, rats; conditions: 200 mg/kg with 7-chlorokynurenic acid (allosteric antagonist of glycine binding site) dosed in the brain
Description: as §1
Rats were anesthetized with pentobarbital (40 mg/kg, intruperitoneally) and mounted on a stereotaxic frame. For the intracranical administration of 7-chlorokynurenicocid, the guide cannulae were fixed to the skull. Beginning 5-7 days after surgery, bilateral intracranial injections were performed in the non-anesthetized rats with cannulae attached by poly ethylene tubes to two 10 μl Hamilton syringes. The injection site was A.P. -0.8 (anterior to bregma), V. +2.0, L.±1.5 according to the atlas of Paxinos and Watson (1982). The medicine 5 μl was injected in four minutes a minute after inserting the needle. After the injection the injection needle was kept in the brain for five minutes and removed. After ten minutes from the beginning of the injection, phencyclidine was dosed intraperitoneally.

Q: Which Side effect [1] does the source give for `CN(C)CCCN1c2ccccc2Sc2ccc(Cl)cc21` [chlorpromazine] here?
A: unsatisfactorily side effect, for example, myogelosis, mouth dry, sleepiness and constipation

Q: Which “Effect on locomotor activity and stereotypy score compared with NMD-Ser and NMD-Ala” value [2] does the source give for `CCCCC(=O)N[C@H](CO)C(=O)O` [N-pentanoyl-D-serine] here?
A: the same effect is observed

Q: Which “Effect on locomotor activity and stereotypy score compared with NMD-Ser and NMD-Ala” value [2] does the source give for `CCCCCCCC/C=C\CCCCCCCC(=O)N[C@H](CO)C(=O)O` [N-oleoyl-D-serine] here?
A: the same effect is observed

Q: For `NCC(=O)O` [glycine], which “Passage through blood brain barrier” value [3] is on record?
A: can not pass through blood brain barrier

Q: With `CCCCC(=O)NCC(=O)O` [2-pentanoyl amino acetic acid] as the compound, how does the “Anticonvulsant functions for convulsion induced with bicuculline” value [4] read?
A: anticonvulsant functions

Q: For `CCCCCNCC(N)=O` [2-n-pentyl amino aceto amide], which “Anticonvulsant functions for convulsion induced with bicuculline” value [4] is on record?
A: anticonvulsant functions

Q: What does the source list for `CCCCCCCCCCCCCC(=O)N[C@H](C)C(=O)O` [NMD-Ala, N-myristoyl-D-alanine]?
A: Locomotor activity score ([2]; 1 mg/kg i.p.): 2.8 ± 0.2; Stereotypy score ([2]; 1 mg/kg i.p.): 3.0 ± 0.4; Locomotor activity score ([2]; 10 mg/kg i.p.): 2.4 ± 0.4; Stereotypy score ([2]; 10 mg/kg i.p.): 2.4 ± 0.2; Locomotor activity score ([2]; 50 mg/kg i.p., P < 0.01): 2.2 ± 0.4; Stereotypy score ([2]; 50 mg/kg i.p., P < 0.01): 2.0 ± 0.3; Locomotor activity score ([2]; 100 mg/kg i.p., P < 0.01): 0.7 ± 0.3; Stereotypy score ([2]; 100 mg/kg i.p., P < 0.01): 0.8 ± 0.3; Locomotor activity score ([2]; 200 mg/kg i.p., P < 0.01): 1.5 ± 0.3; Stereotypy score ([2]; 200 mg/kg i.p., P < 0.01): 1.3 ± 0.4; Dose dependence of locomotor activity and stereotypy score [2]: the scores lessen with the decrease of the dose; Control of locomotor activity and stereotypy score [2]: nearly controlled; Statistical significance of lowering of locomotor activity and stereotypy score [2]: statistical significant difference (P<0.01) is found

Q: For `CCCCCCCCCCCCCC(=O)N[C@H](CO)C(=O)O` [NMD-Ser, N-myristoyl-D-serine], which Locomotor activity score ([2]; 1 mg/kg i.p.) is on record?
A: 3.7 ± 0.2

Q: And the Stereotypy score ([2]; 1 mg/kg i.p.)?
A: 3.2 ± 0.3

Q: What about the Locomotor activity score ([2]; 10 mg/kg i.p.) of the same compound?
A: 3.3 ± 0.2

Q: What about the Stereotypy score ([2]; 10 mg/kg i.p.) of the same compound?
A: 3.2 ± 0.3

Q: What about the Locomotor activity score ([2]; 50 mg/kg i.p., P < 0.01) of the same compound?
A: 2.0 ± 0.3

Q: And the Stereotypy score ([2]; 50 mg/kg i.p., P < 0.01)?
A: 1.7 ± 0.2

Q: And the Locomotor activity score ([2]; 100 mg/kg i.p., P < 0.01)?
A: 1.5 ± 0.5

Q: And the Stereotypy score ([2]; 100 mg/kg i.p., P < 0.01)?
A: 1.2 ± 0.3

Q: And the Locomotor activity score ([2]; 200 mg/kg i.p., P < 0.01)?
A: 1.5 ± 0.3

Q: And the Stereotypy score ([2]; 200 mg/kg i.p., P < 0.01)?
A: 1.5 ± 0.2

Q: And the “Dose dependence of locomotor activity and stereotypy score” value [2]?
A: the scores lessen with the decrease of the dose

Q: What about the “Control of locomotor activity and stereotypy score” value [2] of the same compound?
A: nearly controlled

Q: What about the “Statistical significance of lowering of locomotor activity and stereotypy score” value [2] of the same compound?
A: statistical significant difference (P<0.01) is found

Q: And the “Locomotor activity and stereotypy score observed at a dose of N-myristoyl-D-serine alone, when dosed with 7-chlorokynurenic acid” value [5]?
A: are not observed
